The results in this text go back to ChEMBL document CHEMBL1143167, “Monoaryl-substituted salicylaldoximes as ligands for estrogen receptor beta” (J Med Chem, 2008).

Some results are limits rather than exact numbers.

Assay [1] has as its target T1, Estrogen receptor (Homo sapiens) (UniProt P03372).
T1 sequence (whole entry): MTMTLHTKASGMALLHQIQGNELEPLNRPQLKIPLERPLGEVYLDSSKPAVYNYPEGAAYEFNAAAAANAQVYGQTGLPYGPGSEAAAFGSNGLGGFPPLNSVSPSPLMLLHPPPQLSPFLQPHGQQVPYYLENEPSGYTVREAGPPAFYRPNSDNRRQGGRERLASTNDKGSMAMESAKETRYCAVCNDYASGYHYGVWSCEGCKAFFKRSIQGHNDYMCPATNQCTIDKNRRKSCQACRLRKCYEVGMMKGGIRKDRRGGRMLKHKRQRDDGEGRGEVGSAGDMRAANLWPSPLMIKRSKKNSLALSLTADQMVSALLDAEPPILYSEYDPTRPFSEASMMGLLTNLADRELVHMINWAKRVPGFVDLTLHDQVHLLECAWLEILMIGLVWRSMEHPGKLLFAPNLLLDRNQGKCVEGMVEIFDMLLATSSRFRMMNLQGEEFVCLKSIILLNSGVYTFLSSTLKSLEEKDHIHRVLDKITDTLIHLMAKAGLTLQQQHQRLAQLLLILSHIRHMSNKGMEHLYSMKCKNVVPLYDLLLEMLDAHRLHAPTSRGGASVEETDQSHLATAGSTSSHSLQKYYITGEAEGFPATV
The assay is described as follows: Displacement of [3H]estradiol from purified full length human ERalpha receptor relative to estradiol.

The species named for assay [2] is Homo sapiens. Description: Selectivity ratio of human ERbeta receptor over human ERalpha receptor.
Assay [3] addresses Estrogen receptor beta (Homo sapiens) (UniProt Q92731). The assay is described as follows: Displacement of [3H]estradiol from purified full length human ERbeta receptor relative to estradiol. Background: Loss of bound radioactivity is the signal in a displacement assay; it reports binding, not function.

Sequence of Estrogen receptor beta (Homo sapiens) (Q92731 whole entry): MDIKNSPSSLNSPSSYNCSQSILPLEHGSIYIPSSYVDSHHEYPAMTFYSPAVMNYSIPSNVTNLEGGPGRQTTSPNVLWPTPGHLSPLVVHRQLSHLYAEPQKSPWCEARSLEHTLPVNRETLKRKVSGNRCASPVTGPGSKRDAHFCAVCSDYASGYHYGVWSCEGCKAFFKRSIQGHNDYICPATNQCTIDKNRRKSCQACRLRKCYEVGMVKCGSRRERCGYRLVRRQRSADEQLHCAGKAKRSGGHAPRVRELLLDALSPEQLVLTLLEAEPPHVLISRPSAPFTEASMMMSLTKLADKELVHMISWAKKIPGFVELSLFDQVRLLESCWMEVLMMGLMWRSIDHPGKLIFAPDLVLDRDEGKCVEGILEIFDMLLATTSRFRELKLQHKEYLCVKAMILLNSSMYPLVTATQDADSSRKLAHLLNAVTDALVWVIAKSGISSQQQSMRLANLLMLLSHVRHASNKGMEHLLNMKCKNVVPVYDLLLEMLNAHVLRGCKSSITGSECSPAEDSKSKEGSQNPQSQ

As for `N#Cc1c(-c2ccc(O)cc2)ccc(/C=N/O)c1O`, the figures for the RBA in assay [1] and in assay [3] were 0.004% and 0.078%, respectively. Further, the Ratio in assay [2] came out at 20.
On the same counts, the results for `O/N=C/c1ccc(-c2ccc(O)cc2)cc1O` are 0.007%, 0.553% and 79.
For `Cc1c(-c2ccc(O)cc2)ccc(/C=N/O)c1O` the same measures were 0.249%, 4.1% and 16.
In the case of `COc1ccc(-c2ccc(/C=N/O)c(O)c2)cc1`, the RBA in assay [1] was 0.01%; in assay [3], below 0.004%.
For `O/N=C/c1ccc(-c2ccccc2)cc1O` the same measures were below 0.004% and below 0.004%.
On the same counts, the results for `COc1ccc(-c2ccc(/C=N/O)c(O)c2C)cc1` are 0.005% and 0.007%.
